In ChEMBL document CHEMBL1126830, “Cholecystokinin peptidomimetics as selective CCK-B antagonists: design, synthesis, and in vitro and in vivo biochemical properties” (J Med Chem, 1993) one finds Ki data, which are given here for 27 compounds.

The target in experiment [1] is T1, Cholecystokinin receptor type A (Cavia porcellus, UniProt Q63931).
T1 sequence (Q63931 whole entry): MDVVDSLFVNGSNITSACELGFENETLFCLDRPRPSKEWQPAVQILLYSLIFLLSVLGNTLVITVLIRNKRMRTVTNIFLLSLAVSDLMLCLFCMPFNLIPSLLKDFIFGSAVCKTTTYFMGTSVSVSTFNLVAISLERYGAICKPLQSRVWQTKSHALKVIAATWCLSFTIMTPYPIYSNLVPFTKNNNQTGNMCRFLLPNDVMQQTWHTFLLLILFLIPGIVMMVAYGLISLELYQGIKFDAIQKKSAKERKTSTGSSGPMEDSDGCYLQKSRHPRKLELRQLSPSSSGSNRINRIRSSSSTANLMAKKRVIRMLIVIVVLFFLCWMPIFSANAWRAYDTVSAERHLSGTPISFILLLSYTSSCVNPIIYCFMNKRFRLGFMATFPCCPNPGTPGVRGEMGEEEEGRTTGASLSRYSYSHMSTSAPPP
In words: Tested for inhibition of [3H]-pCCK-8 specific binding to cholecystokinin type A receptor in guinea pig pancreatic membranes. Format: cell membranes.

The target of experiment [2] is T2, Cholecystokinin receptor type A (Rattus norvegicus, UniProt P30551).
T2 sequence (P30551 whole entry): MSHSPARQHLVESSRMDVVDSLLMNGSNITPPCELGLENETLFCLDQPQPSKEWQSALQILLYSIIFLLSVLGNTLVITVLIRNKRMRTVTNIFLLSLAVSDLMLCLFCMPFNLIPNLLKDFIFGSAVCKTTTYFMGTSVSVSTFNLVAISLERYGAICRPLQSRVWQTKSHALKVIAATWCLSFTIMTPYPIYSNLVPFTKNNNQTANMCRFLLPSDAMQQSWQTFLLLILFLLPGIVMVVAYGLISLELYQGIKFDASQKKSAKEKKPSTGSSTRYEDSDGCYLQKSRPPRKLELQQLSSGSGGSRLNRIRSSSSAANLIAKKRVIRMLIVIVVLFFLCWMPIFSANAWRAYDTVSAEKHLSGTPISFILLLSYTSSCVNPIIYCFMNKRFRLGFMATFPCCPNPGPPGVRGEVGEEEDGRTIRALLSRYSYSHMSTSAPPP
Nature of the experiment: Tested for binding affinity towards cholecystokinin type A receptor in rat pancreas by displacement of [3H]pCCK-8 radioligand. In general terms: Loss of bound radioactivity is the signal in a displacement assay; it reports binding, not function.

For experiment [3], the target named is T3, Gastrin/cholecystokinin type B receptor (Rattus norvegicus, UniProt P30553).
T3 sequence (P30553 whole entry): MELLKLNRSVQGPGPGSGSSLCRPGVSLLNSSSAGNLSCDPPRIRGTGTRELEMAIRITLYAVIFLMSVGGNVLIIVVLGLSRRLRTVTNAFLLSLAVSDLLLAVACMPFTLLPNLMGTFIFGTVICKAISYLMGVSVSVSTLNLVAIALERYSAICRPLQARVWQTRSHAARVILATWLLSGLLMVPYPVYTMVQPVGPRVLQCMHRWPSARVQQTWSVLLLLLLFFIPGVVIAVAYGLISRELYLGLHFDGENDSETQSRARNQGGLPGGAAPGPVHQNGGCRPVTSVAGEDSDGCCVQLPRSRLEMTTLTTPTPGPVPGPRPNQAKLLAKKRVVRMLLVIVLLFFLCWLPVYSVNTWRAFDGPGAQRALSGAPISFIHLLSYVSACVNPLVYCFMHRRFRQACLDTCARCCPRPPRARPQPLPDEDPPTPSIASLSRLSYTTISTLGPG
In words: Tested for binding affinity towards cholecystokinin type B receptor in rat […] by displacement of [3H]pCCK-8 radioligand.

Experiment [4] addresses T4, Gastrin/cholecystokinin type B receptor (Mus musculus, UniProt P56481).
T4 sequence (P56481 whole entry): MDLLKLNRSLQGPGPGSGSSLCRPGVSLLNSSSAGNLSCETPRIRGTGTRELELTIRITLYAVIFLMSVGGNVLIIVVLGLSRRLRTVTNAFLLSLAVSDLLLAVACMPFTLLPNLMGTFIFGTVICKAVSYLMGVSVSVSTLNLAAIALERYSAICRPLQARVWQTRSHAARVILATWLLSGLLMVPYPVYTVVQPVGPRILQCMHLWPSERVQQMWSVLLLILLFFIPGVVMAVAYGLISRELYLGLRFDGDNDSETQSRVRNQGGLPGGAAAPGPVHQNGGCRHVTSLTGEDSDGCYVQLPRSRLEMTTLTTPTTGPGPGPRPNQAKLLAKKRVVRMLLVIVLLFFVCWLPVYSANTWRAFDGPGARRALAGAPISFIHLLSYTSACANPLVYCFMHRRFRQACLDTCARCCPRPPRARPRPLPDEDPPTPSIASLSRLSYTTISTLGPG
In words: Tested for binding affinity towards cholecystokinin type B receptor in mouse brain by displacement of [3H]pBC264 radioligand (icv). Format: tissue-based.

What is called Ki is the equilibrium dissociation constant of an inhibitor or competing ligand from its target. A higher Ki goes with a looser hold on the target.

`CC(Cc1c[nH]c2ccccc12)(NC(=O)OC1[C@H]2C[C@@H]3C[C@@H](C[C@H]1C3)C2)C(=O)NCCc1ccc(Cl)cc1` (stereo partly drawn): the inhibition constant (Ki) in experiment [1] is 1.61 µM.

Turning to `CC(Cc1c[nH]c2ccccc12)(NC(=O)OC1[C@H]2C[C@@H]3C[C@@H](C[C@H]1C3)C2)C(=O)N(CCc1ccccc1)CC(=O)O` (stereo partly drawn), the results for the inhibitory constant (Ki) in experiment [2] and in experiment [1] were 0.531 µM and 1.52 µM, respectively. Compound `CC(Cc1c[nH]c2ccccc12)(NC(=O)OC1[C@H]2C[C@@H]3C[C@@H](C[C@H]1C3)C2)C(=O)NCCCc1ccccc1` (stereo partly drawn) gave a Ki in experiment [1] of 4.25 µM. Same read-out and setting: then `CC(Cc1cccc2ccccc12)(NC(=O)OC1[C@H]2C[C@@H]3C[C@@H](C[C@H]1C3)C2)C(=O)N(CCc1ccccc1)CC(=O)O` (stereo partly drawn), with 2.01 µM. Still for that read-out and setting: the figure for `CC(Cc1c[nH]c2ccccc12)(NC(=O)OC1[C@H]2C[C@@H]3C[C@@H](C[C@H]1C3)C2)C(=O)NCCc1ccc(Br)cc1` (stereo partly drawn) is 2.14 µM; for `CC(Cc1c[nH]c2ccccc12)(NC(=O)OC1[C@H]2C[C@@H]3C[C@@H](C[C@H]1C3)C2)C(=O)NCCc1ccccc1` (stereo partly drawn) it is 1.89 µM. Consider `CC(Cc1c[nH]c2ccccc12)(NC(=O)OC1[C@H]2C[C@@H]3C[C@@H](C[C@H]1C3)C2)C(=O)N(CCc1ccc(Cl)cc1)CC(=O)O` (stereo in doubt; 26), for which the inhibition constant Ki worked out at 1.36 µM in experiment [2] and 1.13 µM in experiment [1]. With `CC(Cc1c[nH]c2ccccc12)(NC(=O)OC1[C@H]2C[C@@H]3C[C@@H](C[C@H]1C3)C2)C(=O)NCCc1ccc(Cl)c(Cl)c1` (stereo partly drawn), the Ki in experiment [1] turned out to be 1.54 µM. With `CC(Cc1ccccc1)(NC(=O)OC1[C@H]2C[C@@H]3C[C@@H](C[C@H]1C3)C2)C(=O)N(CCc1ccccc1)CC(=O)O` (stereo partly drawn), the Ki in experiment [1] stood at 3.8 µM.

On to `CC(Cc1c[nH]c2ccccc12)(NC(=O)OC1[C@H]2C[C@@H]3C[C@@H](C[C@H]1C3)C2)C(=O)NCCc1cccc2ccccc12` (stereo partly drawn), for which, in experiment [1], the affinity corresponds to a Ki of 2.37 µM. The same measure, in the same setting: the figure for `CC(Cc1c[nH]c2ccccc12)(NC(=O)Nc1ccc(Cl)cc1)C(=O)NCCc1ccccc1` (stereo not drawn) is 6.33 µM; for `CC(Cc1ccc(Br)cc1)(NC(=O)OC1[C@H]2C[C@@H]3C[C@@H](C[C@H]1C3)C2)C(=O)N(CCc1ccccc1)CC(=O)O` (stereo partly drawn) it is 3.41 µM; for `CC(Cc1c[nH]c2ccccc12)(NC(=O)OC1[C@H]2C[C@@H]3C[C@@H](C[C@H]1C3)C2)C(=O)NCCc1ccc([N+](=O)[O-])cc1` (stereo partly drawn) it is 2.35 µM. Take `CC(Cc1c[nH]c2ccccc12)(NC(=O)OC1[C@H]2C[C@@H]3C[C@@H](C[C@H]1C3)C2)C(=O)N(CCc1ccc(Cl)cc1)CC(=O)O` (stereo in doubt; 26A): the results for the Ki in experiment [2] and in experiment [1] were 1.23 µM and 1.06 µM, respectively. `CC(Cc1c[nH]c2ccccc12)(NC(=O)OC1[C@H]2C[C@@H]3C[C@@H](C[C@H]1C3)C2)C(=O)N(CCC(=O)O)CCc1ccccc1` (stereo partly drawn): the Ki in experiment [1] came to 1.32 µM. On to `CC(Cc1c[nH]c2ccccc12)(C(=O)OC1[C@H]2C[C@@H]3C[C@@H](C[C@H]1C3)C2)C(=O)N(CCc1ccc(Cl)cc1Cl)CC(=O)O` (stereo partly drawn), for which the Ki in experiment [3] worked out at 0.028 µM; in experiment [4] it was 0.014 µM; in experiment [2], 1.22 µM; in experiment [1] it was 3.05 µM. `CC(Cc1c[nH]c2ccccc12)(NC(=O)OC1[C@H]2C[C@@H]3C[C@@H](C[C@H]1C3)C2)C(=O)NCC(=O)O` (stereo partly drawn) yielded a Ki in experiment [1] of more than 4 µM. Consider `CC(Cc1c[nH]c2ccccc12)(NC(=O)OC1[C@H]2C[C@@H]3C[C@@H](C[C@H]1C3)C2)C(=O)Nc1ccccc1` (stereo partly drawn), for which affinity in experiment [1] was put at a Ki of 6.08 µM. In experiment [1], `O=C(O)CN(CCc1ccccc1)C(=O)C(Cc1c[nH]c2ccccc12)NC(=O)OC1[C@H]2C[C@@H]3C[C@@H](C[C@H]1C3)C2` (stereo partly drawn) registered an inhibition constant Ki of 2.84 µM. Same read-out and setting: the figure for `CC(Cc1c[nH]c2ccccc12)(NC(=O)OC1[C@H]2C[C@@H]3C[C@@H](C[C@H]1C3)C2)C(=O)N(CCc1ccc(Cl)cc1Cl)CC(=O)O` (stereo partly drawn) is 1.04 µM; for `CC(Cc1c[nH]c2ccccc12)(NC(=O)OC1[C@H]2C[C@@H]3C[C@@H](C[C@H]1C3)C2)C(=O)NCCc1ccc(Cl)cc1Cl` (stereo partly drawn) it is 3.16 µM; for `CC(Cc1c[nH]c2ccccc12)(NC(=O)Nc1ccc2ccccc2c1)C(=O)NCCc1ccccc1` (stereo not drawn) it is 0.769 µM. On the same count and under the same terms, the figure for `CC(Cc1c[nH]c2ccccc12)(NC(=O)NC(c1ccccc1)(c1ccccc1)c1ccccc1)C(=O)NCCc1ccccc1` (stereo not drawn) is 1.78 µM. Take `CC(Cc1c[nH]c2ccccc12)(NC(=O)OC1[C@H]2C[C@@H]3C[C@@H](C[C@H]1C3)C2)C(=O)NCc1ccccc1` (stereo partly drawn): in experiment [1], the inhibition constant Ki is 4.1 µM.

In experiment [1], `CC(Cc1ccc2ccccc2c1)(NC(=O)OC1[C@H]2C[C@@H]3C[C@@H](C[C@H]1C3)C2)C(=O)N(CCc1ccccc1)CC(=O)O` (stereo partly drawn) gave a Ki of 0.07 µM. Regarding `COc1ccc(CCNC(=O)C(C)(Cc2c[nH]c3ccccc23)NC(=O)OC2[C@H]3C[C@@H]4C[C@@H](C[C@H]2C4)C3)cc1` (stereo partly drawn), the Ki in experiment [1] was determined as 3.12 µM. Still for that read-out and setting: then `CC(Cc1c[nH]c2ccccc12)(NC(=O)OC1[C@H]2C[C@@H]3C[C@@H](C[C@H]1C3)C2)C(=O)Nc1ccc2ccccc2c1` (stereo partly drawn), with 2.36 µM.
